Reference: US20130287721A1, “METHOD FOR COUNTERACTING AMMONIA MALODOR” (Firmenich SA, priority 2010, published 2013)

Tested on: ammonia lateralization threshold
Assay: Panel evaluation of the lateralization threshold (LT) of ammonia alone and in combination with a PRM
Format: in vivo, panellists
Parameters: LT of ammonia Panellist 1 Cond II / LT of ammonia Panellist 2 Cond II / LT of ammonia Panellist 3 Cond II: unit not given here
Conditions: for Ammonia LT Panellist 1 Cond II / Ammonia LT Panellist 2 Cond II / Ammonia LT Panellist 3 Cond II / Ammonia LT Panellist 1 % Δ / Ammonia LT Panellist 2 % Δ / Ammonia LT Panellist 3 % Δ: Table 3; for Ammonia LT Panellist 1 Cond II / Ammonia LT Panellist 2 Cond II / Ammonia LT Panellist 3 Cond II: ammonia stimulus combined with PRM stimulus (concentration of Table 2 in propylene glycol); for Ammonia LT Panellist 1 % Δ / Ammonia LT Panellist 2 % Δ / Ammonia LT Panellist 3 % Δ / LT of ammonia Panellist 1 %Δ / LT of ammonia Panellist 2 %Δ / LT of ammonia Panellist 3 %Δ: change of ammonia LT, Cond II (with PRM) vs Cond I (ammonia alone); for LT of ammonia Panellist 1 Cond II / LT of ammonia Panellist 2 Cond II / LT of ammonia Panellist 3 Cond II / LT of ammonia Panellist 1 %Δ / LT of ammonia Panellist 2 %Δ / LT of ammonia Panellist 3 %Δ: Table 4; for LT of ammonia Panellist 1 Cond II / LT of ammonia Panellist 2 Cond II / LT of ammonia Panellist 3 Cond II: ammonia stimulus combined with PRM stimulus
Method: An ammonia stimulus test range was prepared. To ensure a stable level of ammonia in each stimulus, the ammonia headspace was stabilized by combining appropriate concentrations of NH4Cl, NaOH and H2O instead of simply adding ammonia directly to a solvent. Different concentrations of ammonia were used to create a stimulus test range by utilizing the appropriate amount of each compound (see Table 1).
A stimulus was also prepared for each PRM which was intended to be combined with ammonia stimuli. As the PRMs differed in their potency and to ensure that each PRM stimulus had approximately the same potency, an abbreviated dose response curve was constructed for each PRM by having four panellists evaluate the intensity of five concentration levels of the PRM dissolved in propylene glycol in duplicate. Assessments were made relative to the reference of 170 ppm allyl heptanoate in propylene glycol, which intensity was set to 0. Based upon the average scores, a rough intensity match was made for each PRM utilizing one of the following criteria. If one of the tested concentration levels averaged at or near zero, this concentration level was selected. If the rating created any sort of reasonable curve, the equation of the curve was determined and solved for 0 to arrive at the PRM assessment level. If multiple concentration levels were equally distant form the match level, then the standard deviation across individuals was considered, as were the individual responses. In general, the PRM level was selected to be on average close to 0 with low variability, with two panellists saying the level was a bit too high and the other two panellists saying the level was a bit too low. The PRMs for which a stimulus was prepared are listed in Table 2 below, together with the concentration of the PRM in the stimulus.
Volunteers were screened for their ability to lateralize ammonia stimuli. For the screening, the experimenter measured the participant's lateralization threshold for ammonia using a two-alternative forced choice modified staircase procedure employing a four-in, two-down, one-up rule with a five reversal criterion, as described below, On each trial volunteers were presented with a pair of glass bottles with clean, custom-made nose pieces. One bottle contained ammonia at a particular level selected from Table 1 and the other bottle contained water only. Each bottle was applied to one nostril using the nose piece. The volunteers were asked to identify which bottle in each pair contained ammonia.
If the ammonia stimulus was correctly identified in four consecutive trials, the concentration was decreased by one level of Table 1 on the next trial. If an incorrect answer was provided, the concentration was increased by one level of Table 1. Location (left or right nostril) of the stimulus was randomized over presentations. Testing continued until one of the following occurred: • 1) Five reversals (correct decision followed by an incorrect decision or vice versa) were achieved; • 2) The volunteer gave a correct response twice in a row at the lowest level of Table 1; or • 3) The volunteer gave an incorrect response at the highest level of Table 1.
In the first circumstance, threshold values were then calculated by averaging the last four reversals. In the second circumstance, the LT was the lowest level. In the third circumstance, the LT could not be calculated. Volunteers were considered qualified to participate in the panel evaluation if their LT could be calculated (Circumstance 1).
The LT of ammonia, both alone and in combination with diverse PRM, was determined. A repeated-measures design was used, such that the LT with and without the addition of a PRM were both measured at the same time in one person by utilizing interwoven stimuli presentations. The LT for each PRM was measured by two to three panellists, the third panellists being included if the results of the first to panellists disagreed. […]

Row | Compound | Ammonia LT Panellist 1 Cond II | Ammonia LT Panellist 2 Cond II | Ammonia LT Panellist 3 Cond II | Ammonia LT Panellist 1 % Δ | Ammonia LT Panellist 2 % Δ | Ammonia LT Panellist 3 % Δ | LT of ammonia Panellist 1 Cond II | LT of ammonia Panellist 2 Cond II | LT of ammonia Panellist 3 Cond II | LT of ammonia Panellist 1 %Δ | LT of ammonia Panellist 2 %Δ | LT of ammonia Panellist 3 %Δ
1 | CC/C=C\CCO [(Z)-3-hexen-1-ol] | 2.3 ppm | 225.5 ppm | 56.3 ppm | −68% | 0% | 671% |  |  |  |  |  | 
2 | C[C@H]1[C@@H]2CC(C[C@@]13C=CC(=O)CC3)C2(C)C (single isomer, unassigned; (+)) |  |  |  |  |  |  | 0.4 | 0.6 | 0.6 | 75% | 417% | 215%
3 | CC(C)=CCC/C(C)=C/CO [Geraniol] | 6.1 ppm | 60.0 ppm |  | −68% | −73% |  |  |  |  |  |  | 
4 | CC1C(=O)O[C@H]2C[C@@H](C)CC[C@H]12 (mixture of isomers) [Koumalactone ®, (3aRS,6SR,7aSR)-perhydro-3,6-dimethyl-benzo[B]furan-2-one] | 19.1 ppm | 71.9 ppm |  | 162% | 214% |  |  |  |  |  |  | 
5 | CCCC(=O)OCC(C)C [Isopropylmethyl butyrate] | 188.4 ppm | 188.3 ppm |  | 81809% | 235% |  |  |  |  |  |  | 
6 | CC(C)=CCCC(C)CCO (stereo not shown) [Citronellol] | 60.0 ppm | 225.5 ppm |  | 2978% | 20% |  |  |  |  |  |  | 
7 | COc1cc(C)ccc1O [Creosol H] | 17.9 ppm | 7.3 ppm |  | −68% | −90% |  |  |  |  |  |  | 
8 | CC(C)CC1CC(C)(O)CCO1 (stereo not shown) [Florol ®, Tetrahydro-2-isobutyl-4-methyl-4(2H)-pyranol] | 56.3 ppm | 7.3 ppm | 22.9 ppm | 146% | −62% | 0% |  |  |  |  |  | 
9 | CCC(=O)OCC(C)(C)O[C@@H](C)[C@@H]1CCCC(C)(C)C1 [Helvetolide ®, (+)-(1S,1′R)-2-[1-(3′,3′-dimethyl-1′-cyclohexyl)ethoxy]-2-methylpropyl propanoate] |  |  |  |  |  |  | 11.1 | 2.0 | 2.0 | 454% | 426% | 895%
10 | O=Cc1ccc2c(c1)OCO2 [Heliotropine ®, 1,3-Benzodioxole-5-carbaldehyde] | 7.3 ppm | 22.9 ppm | 2.3 ppm | 274% | −87% | −96% |  |  |  |  |  | 
11 | Cc1ccc2c(c1)CC(C)(CO)C2 (stereo not shown) [Lilyflore ®, 2,5-Dimethyl-2-indanmethanol] | 60.0 ppm | 176.5 ppm | 7.3 ppm | 162% | −6% | −84% |  |  |  |  |  | 
12 | O=C1CCCCCCCCCCCCCCO1 [Exaltolide ®, Pentadecanolide] | 6.1 ppm | 71.9 ppm |  | 213% | 214% |  |  |  |  |  |  | 
13 | COC(=O)c1ccccc1 [Methyl benzoate] | 7.3 ppm | 60 ppm |  | 213% | 162% |  |  |  |  |  |  | 
14 | C=CCOC(=O)CCCCCC [Allyl heptanoate] | 71.9 ppm | 225.5 ppm |  | 28% | 20% |  |  |  |  |  |  | 
15 | CCCC(C)C(=O)OCC (stereo not shown) [Applinate ®, Ethyl 2-methyl-pentanoate] | 2.3 ppm | 55.1 ppm |  | −62% | −23% |  |  |  |  |  |  | 
16 | CCC1CC(C)(C)CCC1=O (stereo not shown) [2-Ethyl-4,4-dimethyl-1-cyclohexanone] |  |  |  |  |  |  | 3.5 | 2.0 | 2.0 | 212% | 471% | 217%
17 | CCOC(=O)C1=C(C)C=CCC1(C)C [Ethyl 2,6,6-trimethyl-1,3-cyclohexadiene-1-carboxylate] |  |  |  |  |  |  | 0.6 | 0.6 | 0.2 | 786% | 215% | 200%
18 | CCCCC[C@H]1CCC[C@H]1O (relative stereo) [Cis-2-pentyl-1-cyclopentanol] |  |  |  |  |  |  | 2.0 | 0.4 | 3.5 | 216% | 90% | 212%
19 | CC1(C)CCCC2(C)C1CCC1(C)OCCC12 (stereo not shown) [Cetalox ®, Dodecahydro-3a,6,6,9a-tetramethyl-naphtho[2,1-b]furan] | 2.3 ppm | 225.5 ppm | 2.3 ppm | −90% | 2988% | −68% |  |  |  |  |  | 
20 | C/C=C/C(=O)C1C(C)C=CCC1(C)C (stereo not shown) [Delta damascone ®, Delta damascone] | 7.3 ppm | 225.5 ppm | 7.3 ppm | −68% | 214% | −96% |  |  |  |  |  | 
21 | Mixture of 3-(4-ethylphenyl)-2,2-dimethylpropanal and 3(2-ethylphenyl)-2,2-dimethylpropanal [Floralozone] |  |  |  |  |  |  | 2.0 | 6.3 | 3.5 | 895% | 214% | 77%
22 | Mixture of (E)-4-(2,2,C-3,T-6-tetramethyl-R-1-cyclohexyl)-3-buten-2-one and (E)-4-(2,2,T-3,T-6-tetramethyl-R-1-cyclohexyl)-3-buten-2-one [Myrrhone ®] |  |  |  |  |  |  | 11.1 | 3.5 | 3.5 | 77% | 212% | 77%
23 | C=C(C)C1CC=C(C)C(=O)C1 (stereo not shown) [Carvone] | 19.1 ppm | 225.5 ppm |  | 214% | 214% |  |  |  |  |  |  | 
24 | C=C1CCCC(C)(C)C1C(=O)OC (stereo not shown) [Romascone ®, Methyl 2,2-dimethyl-6-methylene-1-cyclohexanecarboxylate] |  |  |  |  |  |  | 11.1 | 2.0 | 6.3 | 1685% | 77% | 1686%
25 | CCCc1ccc2c(c1)OCC(=O)CO2 [7-Propyl-2H,4H-1,5-benzodioxepin-3-one] |  |  |  |  |  |  | 11.1 | 6.3 | 3.5 | 456% | 453% | 212%
